Source: article PMC5374412, “Development of Pharmacophore Model for Indeno[1,2-b]indoles as Human Protein Kinase CK2 Inhibitors and Database Mining” (Pharmaceuticals, 2017)

Molecular target: T1, human protein kinase CK2 (holoenzyme) (Homo sapiens, UniProt P68400)
T1 construct: gene CSNK2A1; CK2 holoenzyme, recombinant, expressed in E. coli; with CK2 regulatory subunit beta (CSNK2B), as part of the holoenzyme
Test: capillary electrophoresis-based kinase activity assay, peptide substrate RRRDDDSDDD
Type: biochemical

T1 sequence (P68400 whole entry): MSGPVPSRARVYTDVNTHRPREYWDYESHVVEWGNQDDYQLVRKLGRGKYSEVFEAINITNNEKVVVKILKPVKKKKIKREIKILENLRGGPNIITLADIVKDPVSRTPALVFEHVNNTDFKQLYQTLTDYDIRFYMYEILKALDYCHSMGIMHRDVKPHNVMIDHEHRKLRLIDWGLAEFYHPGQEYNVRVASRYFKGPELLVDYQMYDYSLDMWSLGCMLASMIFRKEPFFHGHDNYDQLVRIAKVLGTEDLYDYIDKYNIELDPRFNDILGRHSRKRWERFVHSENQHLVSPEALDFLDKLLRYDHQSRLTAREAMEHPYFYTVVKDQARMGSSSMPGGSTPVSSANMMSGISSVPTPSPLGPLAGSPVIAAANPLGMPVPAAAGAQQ
T1 sequence (P67870 2-215 partner): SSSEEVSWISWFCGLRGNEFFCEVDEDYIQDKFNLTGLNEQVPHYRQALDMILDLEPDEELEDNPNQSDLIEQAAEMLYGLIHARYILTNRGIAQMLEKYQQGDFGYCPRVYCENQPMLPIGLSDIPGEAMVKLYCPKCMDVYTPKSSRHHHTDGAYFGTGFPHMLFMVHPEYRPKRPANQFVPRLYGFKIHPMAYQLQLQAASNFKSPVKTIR

## COC1=CC(=O)c2c(c(O)c3oc4cc(OC)cc(C)c4c(=O)c3c2O)C1=O [ZINC05765165, 6,11-dihydroxy-3,8-dimethoxy-1-methylbenzo[b]xanthene-7,10,12-trione]
  IC50: 1.24 µM
